These results are taken from ChEMBL document CHEMBL5143521, “Identification of a selective BRD4 PROTAC with potent antiproliferative effects in AR-positive prostate cancer based on a dual BET/PLK1 inhibitor” (Eur J Med Chem, 2022).

Assay [1] addresses Serine/threonine-protein kinase PLK1 (Homo sapiens, UniProt P53350). Kind of assay: Inhibition of recombinant full length human PLK1 using casein as substrate incubated for 40 mins in presence of [gamma-33P]-ATP by radiometric scintillation counting method.
Assay [2] addresses Bromodomain-containing protein 4 (Homo sapiens, UniProt O60885). Description: Inhibition of BRD4 (unknown origin) by alpha-screen assay.
Assay [3] has as its system MV4-11. Kind of assay: Antiproliferative activity against human MV4-11 cells assessed as reduction in cell viability measured after 4 days by MTT assay. The class given is functional, cell-based. Conditions: MV4-11, 96 h. A general note: Tetrazolium dyes change colour on reduction, which living cells bring about.
In assay [4] the test system is DU-145. Kind of assay: Antiproliferative activity against AR-negative human castration resistant DU-145 cells assessed as reduction in cell viability measured after 4 days by MTT assay. Conditions: DU-145, 96 h. The class given is functional, cell-based.
The subject of assay [5] is PC-3. Description: Antiproliferative activity against AR-negative human castration resistant PC-3 cells assessed as reduction in cell viability measured after 4 days by MTT assay. Conditions: PC-3, 96 h. The assay is classed as functional, cell-based.
The subject of assay [6] is VCaP. Kind of assay: Antiproliferative activity against AR-positive human VCaP cells assessed as reduction in cell viability measured after 4 days by MTT assay. The assay is classed as functional, cell-based. Conditions: 96 h.
Assay [7] relates to LNCaP. Kind of assay: Antiproliferative activity against AR-positive harmone sensitive human LNCaP cells assessed as reduction in cell viability measured after 4 days by MTT assay. The class given is functional, cell-based. Conditions: 96 h.
For assay [8], the system named is CWR22R. Description: Antiproliferative activity against AR-positive human 22Rv1 cells assessed as reduction in cell viability measured after 4 days by MTT assay. The class given is functional, cell-based. Conditions: 22Rv1, 96 h.
Assay [9] deals with CWR22R. Description: Inhibition of colony formation in AR-positive human 22Rv1 cells at 1 nM measured after 12 days by crystal violet staining based assay. The assay is classed as functional, cell-based. The settings on record: time 12.0 day.
The subject of assay [10] is PC-3. Description: Inhibition of colony formation in AR-negative human castration resistant PC-3 cells at 1 nM measured after 12 days by crystal violet staining based assay. The class given is functional, cell-based. The settings on record: time 12.0 day.
Assay [11] deals with DU-145. Kind of assay: Inhibition of colony formation in AR-negative human castration resistant DU-145 cells at 1 nM measured after 12 days by crystal violet staining based assay. The class given is functional, cell-based. The settings on record: time 12.0 day.
For assay [12], the system named is LNCaP. Description: Antiproliferative activity against AR-positive harmone sensitive human LNCaP cells assessed as reduction in cell viability at 1 nM incubated for 3 days followed by compound washout and measured after 8 days. The class given is functional. The settings on record: 72 h, time 3 day.
The test system of assay [13] is CWR22R. Description: Antiproliferative activity against AR-positive human 22Rv1 cells assessed as reduction in cell viability at 1 nM incubated for 3 days followed by compound washout and measured after 8 days. The class given is functional. The settings on record: 22Rv1, 72 h, time 3 day.
In assay [14] the test system is DU-145. Kind of assay: Antiproliferative activity against negative human castration resistant DU-145 cells assessed as reduction in cell viability at 1 nM incubated for 3 days followed by compound washout and measured after 8 days. The assay is classed as functional, cell-based. The settings on record: time 3.0 day.
For assay [15], the system named is CWR22R. Kind of assay: Induction of cell cycle arrest in AR-positive human 22Rv1 cells assessed as accumulation of cells at G2/M phase at 1 to 3 uM measured after 72 hrs by flow cytometry analysis. The class given is functional, cell-based. The settings on record: dose 1-3 µM. For orientation: In flow cytometry, cells or beads pass a laser one at a time.
Assay [16] deals with CWR22R. Description: Induction of cell cycle arrest in AR-positive human 22Rv1 cells assessed as downregulation of CDK2 expression at 1 to 3 uM measured after 72 hrs by Western blot analysis. The class given is functional, cell-based. The settings on record: dose 1-3 µM. A general note: Immunoblotting shows a protein as a band on a membrane.
In assay [17] the test system is CWR22R. Kind of assay: Induction of cell cycle arrest in AR-positive human 22Rv1 cells assessed as downregulation of CDK6 expression at 1 to 3 uM measured after 72 hrs by Western blot analysis. The assay is classed as functional, cell-based. The settings on record: dose 1-3 µM.
Assay [18] has as its system CWR22R. Description: Induction of cell cycle arrest in AR-positive human 22Rv1 cells assessed as downregulation of cyclin D1 expression at 1 to 3 uM measured after 72 hrs by Western blot analysis. The class given is functional, cell-based. The settings on record: dose 1-3 µM.
The subject of assay [19] is CWR22R. Description: Induction of cell cycle arrest in AR-positive human 22Rv1 cells assessed as downregulation of cyclin E expression at 1 to 3 uM measured after 72 hrs by Western blot analysis. The settings on record: dose 1-3 µM. The class given is functional, cell-based.
The test system of assay [20] is CWR22R. Description: Induction of cell cycle arrest in AR-positive human 22Rv1 cells assessed as upregulation of cyclin B1 expression at 1 to 3 uM measured after 72 hrs by Western blot analysis. The class given is functional, cell-based. Conditions: dose 1-3 µM.
Assay [21] concerns the target Protein cereblon/Bromodomain-containing protein 4 (Homo sapiens) (UniProt O60885+Q96SW2). Description: Protac activity at BRD4/CRBN in human VCaP cells assessed as degradation of BRD4 by measuring downregulation of BRD4 expression level at 10 nM incubated for 24 hrs by immunoblotting analysis. The class given is cell-based.
Assay [22] deals with VCaP. Kind of assay: Inhibition of c-Myc expression level in human VCap cells at 10 nM incubated for 24 hrs by immunoblotting analysis. The class given is functional, cell-based.

pIC50: −log10 of the molar value. The source made the active and inactive calls. The calls are words filed in the database; no cut-off is given here.

Serine/threonine-protein kinase PLK1, sequence (P53350 whole entry): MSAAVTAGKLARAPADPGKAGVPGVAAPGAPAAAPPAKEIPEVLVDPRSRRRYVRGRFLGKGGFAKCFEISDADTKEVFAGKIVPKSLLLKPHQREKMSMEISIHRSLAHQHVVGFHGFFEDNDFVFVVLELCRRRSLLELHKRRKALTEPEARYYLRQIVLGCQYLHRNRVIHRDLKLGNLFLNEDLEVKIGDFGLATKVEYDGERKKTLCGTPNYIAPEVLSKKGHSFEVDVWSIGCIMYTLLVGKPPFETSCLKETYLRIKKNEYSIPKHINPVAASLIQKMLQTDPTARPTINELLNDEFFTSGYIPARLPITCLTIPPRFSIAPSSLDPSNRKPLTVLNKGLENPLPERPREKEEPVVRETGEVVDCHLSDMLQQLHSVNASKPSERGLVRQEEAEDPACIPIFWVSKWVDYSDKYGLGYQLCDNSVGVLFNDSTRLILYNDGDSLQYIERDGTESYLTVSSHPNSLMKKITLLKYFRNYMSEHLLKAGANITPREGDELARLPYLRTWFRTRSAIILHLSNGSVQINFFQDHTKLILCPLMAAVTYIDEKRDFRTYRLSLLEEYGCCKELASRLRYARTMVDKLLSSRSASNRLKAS
Protein cereblon/Bromodomain-containing protein 4 (Homo sapiens), sequence (Q96SW2 whole entry, looked up, other chains not shown): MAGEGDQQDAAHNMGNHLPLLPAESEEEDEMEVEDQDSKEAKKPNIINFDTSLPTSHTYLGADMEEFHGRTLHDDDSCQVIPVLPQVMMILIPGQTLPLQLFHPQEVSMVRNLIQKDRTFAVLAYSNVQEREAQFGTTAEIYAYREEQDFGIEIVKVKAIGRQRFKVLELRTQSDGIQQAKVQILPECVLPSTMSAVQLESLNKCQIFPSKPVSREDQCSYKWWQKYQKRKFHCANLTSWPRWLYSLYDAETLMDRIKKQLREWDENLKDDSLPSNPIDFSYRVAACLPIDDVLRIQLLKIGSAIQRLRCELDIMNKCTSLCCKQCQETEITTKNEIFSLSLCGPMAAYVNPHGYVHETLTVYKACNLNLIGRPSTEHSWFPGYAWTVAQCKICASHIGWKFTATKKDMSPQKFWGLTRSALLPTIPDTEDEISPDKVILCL

As for `CC[C@@H]1c2nnc(C)n2-c2cnc(Nc3ccc(C(=O)NC4CCN(CCCCCOc5cccc6c5C(=O)N(C5CCC(=O)NC5=O)C6=O)CC4)cc3OC)nc2N1CC1CCCCC1` (some centres not stated), the pIC50 in [1] is 5.95; in assay [2], 6.82; in assay [3] it was 7.68.

On to `CC[C@@H]1c2nnc(C)n2-c2cnc(Nc3ccc(C(=O)NC4CCN(C(=O)CCCCCCC(=O)Nc5cccc6c5CN(C5CCC(=O)NC5=O)C6=O)CC4)cc3OC)nc2N1CC1CCCCC1` (some centres not stated), for which the figures for the pIC50 in [1], in assay [2] and in assay [3] were 6.19, 6.72 and 6.17, respectively.

Take `CC[C@@H]1c2nnc(C)n2-c2cnc(Nc3ccc(C(=O)NC4CCN(CCCCCCCCCCOc5cccc6c5C(=O)N(C5CCC(=O)NC5=O)C6=O)CC4)cc3OC)nc2N1CC1CCCCC1` (some centres not stated): the pIC50 in assay [1] was 5.25; in [2], 6.55; in assay [3] it was 6.82.

In the case of `CC[C@@H]1c2nnc(C)n2-c2cnc(Nc3ccc(C(=O)NC4CCN(CCCCCCCCOc5cccc6c5C(=O)N(C5CCC(=O)NC5=O)C6=O)CC4)cc3OC)nc2N1CC1CCCCC1` (some centres not stated), the pIC50 is 5.29 in assay [1], 6.46 in assay [2] and 7.07 in assay [3].

Regarding `CC[C@@H]1c2nnc(C)n2-c2cnc(Nc3ccc(C(=O)NC4CCN(CCCCCCCCCCCOc5cccc6c5C(=O)N(C5CCC(=O)NC5=O)C6=O)CC4)cc3OC)nc2N1CC1CCCCC1` (some centres not stated), the pIC50 is 5.42 in assay [1], 6.42 in assay [2] and 6.73 in assay [3].

As for `CC[C@@H]1c2nnc(C)n2-c2cnc(Nc3ccc(C(=O)NC4CCN(CCCCCCCCCOc5cccc6c5C(=O)N(C5CCC(=O)NC5=O)C6=O)CC4)cc3OC)nc2N1CC1CCCCC1` (some centres not stated), the pIC50 in [1] is 5.67; in assay [2], 6.65; in assay [3] it was 7.44.

On to `CC[C@@H]1c2nnc(C)n2-c2cnc(Nc3ccc(C(=O)NC4CCN(C(=O)CCCCCOc5cccc6c5C(=O)N(C5CCC(=O)NC5=O)C6=O)CC4)cc3OC)nc2N1CC1CCCCC1` (some centres not stated), for which the pIC50 in assay [1] was 5.91; in assay [2] it was 6.36; in assay [3], 8.15.

As for `CC[C@@H]1c2nnc(C)n2-c2cnc(Nc3ccc(C(=O)NC4CCN(C(=O)CCCCCCOc5cccc6c5C(=O)N(C5CCC(=O)NC5=O)C6=O)CC4)cc3OC)nc2N1CC1CCCCC1` (some centres not stated), the figures for the pIC50 in assay [1], in assay [2] and in assay [3] were 5.74, 6.18 and 8.00, respectively.

As to `CC[C@@H]1c2nnc(C)n2-c2cnc(Nc3ccc(C(=O)NC4CCN(C(=O)CCCCOc5cccc6c5C(=O)N(C5CCC(=O)NC5=O)C6=O)CC4)cc3OC)nc2N1CC1CCCCC1` (some centres not stated), the pIC50 in [1] was 5.92; in assay [2], 6.43; in assay [3] it was 7.89.

In the case of `CC[C@@H]1c2nnc(C)n2-c2cnc(Nc3ccc(C(=O)NC4CCN(C)CC4)cc3OC)nc2N1CC1CCCCC1`, the pIC50 in assay [4] was 5.83; in [5] it was 5.85; in [6], 6.20; in assay [7], 5.84; in [8], 6.24. The inhibition result in assay [9], in assay [10], in assay [11] and in assay [14] was “Active” in each case. Further, the inhibition at 0.001 µM in assay [12] and in assay [13] was 100% throughout. For the same compound, the result in assay [15], in assay [16], in assay [17], in assay [18], in [19] and in assay [20] was Active.

Regarding `CC[C@@H]1c2nnc(C)n2-c2cnc(Nc3ccc(C(=O)NC4CCN(C(=O)CCCCNc5cccc6c5CN(C5CCC(=O)NC5=O)C6=O)CC4)cc3OC)nc2N1CC1CCCCC1` (some centres not stated), the pIC50 in assay [1] was 5.87; in assay [2], 6.51; in assay [3] it was 6.12.

With `CC[C@@H]1c2nnc(C)n2-c2cnc(Nc3ccc(C(=O)NC4CCN(CCCCCCOc5cccc6c5C(=O)N(C5CCC(=O)NC5=O)C6=O)CC4)cc3OC)nc2N1CC1CCCCC1` (some centres not stated), the pIC50 in assay [1] is 5.61; in assay [2], 6.92; in [3], 6.74.

In the case of `CC[C@@H]1c2nnc(C)n2-c2cnc(Nc3ccc(C(=O)NC4CCN(C(=O)CNc5cccc6c5CN(C5CCC(=O)NC5=O)C6=O)CC4)cc3OC)nc2N1CC1CCCCC1` (some centres not stated), the results for the pIC50 in assay [1], in assay [2] and in [3] were 5.70, 6.59 and 7.74, respectively.

Regarding `CC[C@@H]1c2nnc(C)n2-c2cnc(Nc3ccc(C(=O)NC4CCN(CCCCCCCOc5cccc6c5C(=O)N(C5CCC(=O)NC5=O)C6=O)CC4)cc3OC)nc2N1CC1CCCCC1` (some centres not stated), the pIC50 in [1] was 5.90; in assay [2], 6.68; in [3], 8.10. Further, in assay [21], the result was Active. Further, in assay [22], the inhibition entry was “Active”.

With `CC[C@@H]1c2nnc(C)n2-c2cnc(Nc3ccc(C(=O)NC4CCN(C(=O)CCCOc5cccc6c5C(=O)N(C5CCC(=O)NC5=O)C6=O)CC4)cc3OC)nc2N1CC1CCCCC1` (some centres not stated), the figures for the pIC50 in assay [1], in [2] and in assay [3] were 6.10, 6.13 and 7.74, respectively.

As for `CC[C@@H]1c2nnc(C)n2-c2cnc(Nc3ccc(C(=O)NC4CCN(C(=O)CCCCCNc5cccc6c5CN(C5CCC(=O)NC5=O)C6=O)CC4)cc3OC)nc2N1CC1CCCCC1` (some centres not stated), the pIC50 in [1] was 5.92; in assay [2] it was 6.54; in assay [3], 8.00.

Regarding `CC[C@@H]1c2nnc(C)n2-c2cnc(Nc3ccc(C(=O)NC4CCN(CCCCNC(=O)COc5cccc6c5C(=O)C(C5CCC(=O)NC5=O)C6=O)CC4)cc3OC)nc2N1CC1CCCCC1` (some centres not stated), the pIC50 is 6.51 in [1], 6.66 in assay [2] and 6.44 in [3].

As a reminder, the pIC50 is −log10 of the IC50, conventionally taken in molar units. What is called inhibition is the relative decrease from the control value, in per cent.
